Data on 35 molecules can be found in patent US20240174659A1, “COMPOUNDS AND METHODS FOR YAP/TEAD MODULATION AND INDICATIONS THEREFOR” (Opna Bio SA, priority 2021, published 2024).

The assay concerns TEAD-dependent transcription. Nature of the assay: Inhibitor activity against TEAD-dependent transcription in a cell-based reporter assay (MSTO-211H+12XGTIIC luciferase). The following applies: Homo sapiens; MSTO-211H+12XGTIIC cells, 24 hours incubation, luciferase luminescence normalized to cell viability fluorescence, geometric mean; read-out: MSTO-211H GMean IC50 (uM) Cell Assay Reporter Cell Variant: TEAD. An excerpt: Determine Inhibitor Activity Against TEAD-Dependent Transcription in a Cell-Based Reporter Assay
The human mesothelioma cell line MSTO-211H was stably transfected with a pGL4.21 plasmid containing a synthetic promoter with 12 copies of the GTIIC TEAD response element that drives the expression of a luciferase reporter gene^1 using Lipofectamine transfection reagent (Thermo Fisher). Transfected cells were selected using puromycin and single cell clones expressing this construct (referred to as MSTO-211H+12XGTIIC) were generated by limiting dilution. MSTO-211H cells was characterized by genetic alterations in key components of the Hippo pathway^2, resulting in up-regulation of YAP/TEAD-mediated transcription. […] To evaluate TEAD inhibitors, the MSTO-211H+12XGTIIC cell line was seeded in a 96-well plate in 50 μL of culture media at 1×10^4 cells per well and incubated at 37° C. overnight. Serial dilutions of compounds (in total volume of 50 μL of culture media) were added to the cells and incubated at 37° C. for 24 hours. Each plate included cells treated with DMSO as high controls and cells treated with 20 μM of the reference compound K-975 (a known TEAD inhibitor)^3 as low controls. Cell viability was assayed by the addition of 25 μL of CellTiter-Fluor reagent (Promega) followed by a 30-minute incubation at 37° C. and quantification of the fluorescence signal (Ex400/Em505). Subsequently, luciferase expression was assayed by the addition of 25 μL of ONE-Glo reagent (Promega) followed by a 10-minute incubation at room temperature and quantification of the luminescence signal. The luminescence signal was normalized to the fluorescence signal to correct for any loss in cell viability over the 24-hour compound incubation period. The percentage of inhibition of normalized luminescence signal, indicative of compound-mediated inhibition of TEAD-dependent transcription, at individual compound concentrations relative to high and low controls was calculated. The data were analyzed by using nonlinear regression to generate IC50 values for individual compounds.
(A reporter such as luciferase makes a cellular process visible.)

Counter-ions that a name gives are not always drawn.

Consider `C=CC(=O)N1CCc2ccc(OC3CC4CCC3C4)cc2C1` (centres unmarked) [P-0076, 1-(7-(bicyclo[2.2.1]heptan-2-yloxy)-3,4-dihydroisoquinolin-2(1H)-yl)prop-2-en-1-one], for which the IC50 lay in the range of 0.001 to 0.5 µM. With `C=CC(=O)N1CCc2ccc(OC3CCC(C)(C)CC3)cc2C1` [P-0082, 1-(7-((4,4-dimethylcyclohexyl)oxy)-3,4-dihydroisoquinolin-2(1H)-yl)prop-2-en-1-one], the IC50 lay within 0.001 to 0.5 µM. On to `CN1CCN(C/C=C/C(=O)N2CCc3ccc(Oc4cccc(F)c4)cc3C2)CC1` [P-0040, (E)-1-(7-(3-fluorophenoxy)-3,4-dihydroisoquinolin-2(1H)-yl)-4-(4-methylpiperazin-1-yl)but-2-en-1-one], for which the IC50 is more than 20 µM. As for `C=CC(=O)N1CCc2ccc(Oc3cccc(C(F)(F)F)c3)cc2C1` [P-0017, 1-(7-(3-(trifluoromethyl)phenoxy)-3,4-dihydroisoquinolin-2(1H)-yl)prop-2-en-1-one], the figure is 0.001 to 0.5 µM. As for `C=CC(=O)N1CCc2ccc(Oc3ccc(C(F)(F)F)nc3)cc2C1` [P-0027, 1-(7-((6-(trifluoromethyl)pyridin-3-yl)oxy)-3,4-dihydroisoquinolin-2(1H)-yl)prop-2-en-1-one], the figure is 0.001 to 0.5 µM; as for `CN1CCN(C/C=C/C(=O)N2CCc3ccc(Oc4ccc(C(F)(F)F)cc4)cc3C2)CC1` [P-0121, (E)-4-(4-methylpiperazin-1-yl)-1-(7-(4-(trifluoromethyl)phenoxy)-3,4-dihydroisoquinolin-2(1H)-yl)but-2-en-1-one], 0.5 to 20 µM. As for `C=CC(=O)N1CCc2ccc(Nc3cccc(F)c3)cc2C1` [P-0004, 1-(7-((3-fluorophenyl)amino)-3,4-dihydroisoquinolin-2(1H)-yl)prop-2-en-1-one], the figure is 0.001 to 0.5 µM; as for `[2H]C([2H])=C([2H])C(=O)N1CCc2ccc(Oc3ccc(C(F)(F)F)c(F)c3)cc2C1` [P-0049, 1-(7-(3-fluoro-4-(trifluoromethyl)phenoxy)-3,4-dihydroisoquinolin-2(1H)-yl)prop-2-en-1-one-2,3,3-d3], 0.001 to 0.5 µM. `C=CC(=O)N1CCc2ccc(NC3CC4(CCC4)C3)cc2C1` [P-0055, 1-(7-(spiro[3.3]heptan-2-ylamino)-3,4-dihydroisoquinolin-2(1H)-yl)prop-2-en-1-one formate]: the IC50 was 0.001 to 0.5 µM. As for `C=CC(=O)N1CCc2ccc(Cc3ccc(F)cc3)cc2C1` [P-0035, 1-(7-(4-fluorobenzyl)-3,4-dihydroisoquinolin-2(1H)-yl)prop-2-en-1-one], the IC50 was in the range of 0.001 to 0.5 µM.

With `C=CC(=O)N1CCc2ccc(OCc3ccc(C(F)(F)F)nc3)cc2C1` [P-0079, 1-(7-((6-(trifluoromethyl)pyridin-3-yl)methoxy)-3,4-dihydroisoquinolin-2(1H)-yl)prop-2-en-1-one], the IC50 is more than 20 µM. Take `C=CC(=O)N1CCc2ccc(OCC34CCC(CC3)C4)cc2C1` [P-0110, 1-(7-(bicyclo[2.2.1]heptan-1-ylmethoxy)-3,4-dihydroisoquinolin-2(1H)-yl)prop-2-en-1-one]: the IC50 was in the range of 0.001 to 0.5 µM. Regarding `C=CC(=O)N1CCc2ccc(OC3CC4(CCC4)C3)cc2C1` [P-0074, 1-(7-(spiro[3.3]heptan-2-yloxy)-3,4-dihydroisoquinolin-2(1H)-yl)prop-2-en-1-one], the IC50 was 0.001 to 0.5 µM.

With `C=CC(=O)N1CCc2ccc(Oc3ccnc(C(F)(F)F)c3)cc2C1` [P-0060, 1-(7-((2-(trifluoromethyl)pyridin-4-yl)oxy)-3,4-dihydroisoquinolin-2(1H)-yl)prop-2-en-1-one], the IC50 lay in the range of 0.001 to 0.5 µM.

For the molecule `C=CC(=O)N1CCc2ccc(Oc3cccc(F)c3)cc2C1` [P-0006, 1-(7-(3-fluorophenoxy)-3,4-dihydroisoquinolin-2(1H)-yl)prop-2-en-1-one], the half-maximal inhibitory concentration (IC50) lay within 0.001 to 0.5 µM. As to `C=CC(=O)N1CCc2ccc(Oc3ccc(C(F)(F)F)cc3)cc2C1` [P-0018, 1-(7-(4-(trifluoromethyl)phenoxy)-3,4-dihydroisoquinolin-2(1H)-yl)prop-2-en-1-one], the IC50 is 0.001 to 0.5 µM. As to `C=CC(=O)N1CCc2ccc(Oc3ccc(C4CC4)cc3)cc2C1` [P-0047, 1-(7-(4-cyclopropylphenoxy)-3,4-dihydroisoquinolin-2(1H)-yl)prop-2-en-1-one], the IC50 is 0.001 to 0.5 µM.

For the molecule `C=CC(=O)N1CCc2cc(F)c(Oc3ccc(C(F)(F)F)cc3)cc2C1` [P-0103, 1-(6-fluoro-7-(4-(trifluoromethyl)phenoxy)-3,4-dihydroisoquinolin-2(1H)-yl)prop-2-en-1-one], the IC50 was 0.001 to 0.5 µM. For the molecule `C=CC(=O)N1CCc2cccc(Nc3cccc(F)c3)c2C1` [P-0003, 1-(8-((3-fluorophenyl)amino)-3,4-dihydroisoquinolin-2(1H)-yl)prop-2-en-1-one], the IC50 is 0.5 to 20 µM. In the case of `C=CS(=O)(=O)N1CCc2ccc(Oc3ccc(C(F)(F)F)cc3)cc2C1` [P-0114, 7-(4-(trifluoromethyl)phenoxy)-2-(vinylsulfonyl)-1,2,3,4-tetrahydroisoquinoline], the IC50 was in the range of 0.5 to 20 µM. On to `C=CC(=O)N1CCc2ccc(Cc3ccc(F)c(C(F)(F)F)c3)cc2C1` [P-0067, 1-(7-(4-fluoro-3-(trifluoromethyl)benzyl)-3,4-dihydroisoquinolin-2(1H)-yl)prop-2-en-1-one], for which the IC50 lay in the range of 0.001 to 0.5 µM.

With `C=CC(=O)N1CCc2ccc(OCC3CCC(F)(F)C3)cc2C1` (centres unmarked) [P-0130, 1-(7-((3,3-difluorocyclopentyl)methoxy)-3,4-dihydroisoquinolin-2(1H)-yl)prop-2-en-1-one], the IC50 lay within 0.001 to 0.5 µM. In the case of `C=C(CO)C(=O)N1CCc2ccc(Oc3ccc(C(F)(F)F)cc3)cc2C1` [P-0126, 2-(hydroxymethyl)-1-(7-(4-(trifluoromethyl)phenoxy)-3,4-dihydroisoquinolin-2(1H)-yl)prop-2-en-1-one], the IC50 fell in the range of 0.001 to 0.5 µM.

Turning to `C=CC(=O)N1CCc2ccc(Oc3ccc(C4CC4)c(F)c3)cc2C1` [P-0050, 1-(7-(4-cyclopropyl-3-fluorophenoxy)-3,4-dihydroisoquinolin-2(1H)-yl)prop-2-en-1-one], the IC50 lay within 0.001 to 0.5 µM.

As for `C=CC(=O)N1CCc2cc(C)c(Oc3cccc(F)c3)cc2C1` [P-0042, 1-(7-(3-fluorophenoxy)-6-methyl-3,4-dihydroisoquinolin-2(1H)-yl)prop-2-en-1-one], the IC50 is 0.001 to 0.5 µM. `C=CC(=O)N1CCc2ccc(Oc3ccc(C(F)(F)F)c(F)c3)cc2C1` [P-0045, 1-(7-(3-fluoro-4-(trifluoromethyl)phenoxy)-3,4-dihydroisoquinolin-2(1H)-yl)prop-2-en-1-one]: the IC50 lay within 0.001 to 0.5 µM. The value for `C=CC(=O)N1CCc2ccc(O[C@@H]3C[C@@H]4[C@H](C3)C4(F)F)cc2C1` [P-0086, 1-(7-(((1R,3s,5S)-6,6-difluorobicyclo[3.1.0]hexan-3-yl)oxy)-3,4-dihydroisoquinolin-2(1H)-yl)prop-2-en-1-one] was 0.001 to 0.5 µM; that for `C=CC(=O)N1CCc2ccc(OCc3ccc(F)cc3)cc2C1` [P-0001, 1-(7-((4-fluorobenzyl)oxy)-3,4-dihydroisoquinolin-2(1H)-yl)prop-2-en-1-one] was 0.001 to 0.5 µM. On to `C=CC(=O)N1CCc2ccc(OCc3ccc(F)c(F)c3)cc2C1` [P-0129, 1-(7-((3,4-difluorobenzyl)oxy)-3,4-dihydroisoquinolin-2(1H)-yl)prop-2-en-1-one], for which the IC50 was more than 20 µM. As for `C=CC(=O)N1CCc2cccc(Oc3cccc(F)c3)c2C1` [P-0005, 1-(8-(3-fluorophenoxy)-3,4-dihydroisoquinolin-2(1H)-yl)prop-2-en-1-one], the figure is 0.001 to 0.5 µM.

For `C=CC(=O)N1CCc2ccc(Nc3ccc(C(F)(F)F)nc3)cc2C1` [P-0012, 1-(7-((6-(trifluoromethyl)pyridin-3-yl)amino)-3,4-dihydroisoquinolin-2(1H)-yl)prop-2-en-1-one], the IC50 lay within 0.5 to 20 µM.

Regarding `C=CC(=O)N1CCc2ccc(Cc3ccc(C(F)(F)F)nc3)cc2C1` [P-0104, 1-(7-((6-(trifluoromethyl)pyridin-3-yl)methyl)-3,4-dihydroisoquinolin-2(1H)-yl)prop-2-en-1-one], the IC50 fell in the range of 0.001 to 0.5 µM.

Regarding `C=CC(=O)N1CCc2ccc(OCC3CC(F)(F)C3)cc2C1` [P-0107, 1-(7-((3,3-difluorocyclobutyl)methoxy)-3,4-dihydroisoquinolin-2(1H)-yl)prop-2-en-1-one], the IC50 fell in the range of 0.001 to 0.5 µM. As for `C=CC(=O)N1Cc2cc(Oc3ccc(C(F)(F)F)nc3)ccc2C(C)C1` (centres unmarked) [P-0093, 1-(4-methyl-7-((6-(trifluoromethyl)pyridin-3-yl)oxy)-3,4-dihydroisoquinolin-2(1H)-yl)prop-2-en-1-one], the half-maximal inhibitory concentration (IC50) is 0.001 to 0.5 µM. In the case of `C=CC(=O)N1CCc2ccc(Oc3ccc(F)c(F)c3)cc2C1` [P-0016, 1-(7-(3,4-difluorophenoxy)-3,4-dihydroisoquinolin-2(1H)-yl)prop-2-en-1-one], the IC50 was in the range of 0.001 to 0.5 µM.

In general, IC50 refers to the concentration needed to halve the response being measured.
